Laboratory results reported in article PMC8639922, “KSHV transactivator-derived small peptide traps coactivators to attenuate MYC and inhibits leukemia and lymphoma cell growth” (Communications Biology, 2021).
Square brackets hold non-standard residues; d marks the D form. Peptide text beside a SMILES is read from it. Orn = NCCC[C@H](N)C(=O)O; βAla = NCCC(=O)O

How the values were obtained:
BCBL-1 = test: Flow cytometry, apoptosis induction (Annexin V staining); format: cell-based, human; details: BCBL-1, 24 h, AnnexinV+ 7AAD-
Method: (§1) Leukoreduction system chambers (LRS) from healthy donors were purchased from Vitalant. Peripheral blood mononuclear cells (PBMCs) were prepared by a standard Ficoll gradient method. PBMCs along with THP-1 and BCBL-1 cell lines (2 × 10^6 cells/ml, 0.2 ml 10% FBS/RPMI/DMEM per well of a 96-well plate) were treated with various doses (0–256 μM) of either VGN50 peptide or control mutant peptide for 24 h. Cell death, apoptosis, and proliferation were analyzed by flow cytometry (BD Acuri) after intracellular staining with anti-humanKi67-Alexa488 (Biolegend, 1:100) along with the isotype control antibody, annexin-V-FITC with 7-AAD staining (Biolegend) according to the manufacture’s protocol, Live/dead Fixable Red Dead Cell staining kit (Invitrogen) according to the manufacture’s protocol, or MTT assay. Peptides were commercially synthesized (GenScript) with >90% purity with TFA removal.
(§2) AnnexinV+ 7AAD- % = apoptosis % […]
(§3) S-Figure 3. Flow cytometry analyses
(§4) (a) Apoptosis (%) was determined as Annexi nV+ 7AAD- popul at i on gat ed i n r ed shown i n
(§5) representative FACS plots of BCBL-1 cel l s t r eat ed wi t h PBS or VGN50 at 32µM. […]

BC-1 = test: as above; format: cell-based, human; details: BC-1, 24 h, AnnexinV+ 7AAD-
Method: as §1, §2, §3, §4, §5

[1] = system: PEL-derived human cytokines; test: Olink INFLAMMATION panel, cytokines in ascites fluid of PEL xenograft; format: in vivo, mouse; set-up: key to IL8 / CXCL10 / FGF-19 / IL-12B / TRAIL / VEGFA / IL-17A / CST5 / IL-18R1 / HGF / ARTN / bNGF: NPX, log2-normalized protein expression; key to 4E-BP1 / TWEAK / LAP TGF-beta-1 / Beta-NGF / LAPTGFb-1 / TWAEK / 4EBP-1 / IL-8: log2-scale normalized protein expression (NPX) values
Method: Fig. 6 VGN50 inhibits BCBL-1 cell growth in xenograft mice. a PEL-xenograft. BCBL-1 cells (2 × 10^7 cells) were injected i.p. Peptide (10 mg/kg) was administrated i.p. daily and tumor growth was monitored by measurement of body weight (n = 6–9 mice per group). b Ascites volume and PEL cell counts. In a separate experiment, ascites volume and PEL cell counts in ascites fluid were measured at day 10. (n = 3–4 mice per group) c Induction of atrophy. BCBL-1 cells isolated from ascites fluid were measured for FSC-A and SSC-A by flow cytometry. […] (n = 3) d Expression of inflammatory cytokines. Principal component analysis based on expression levels of inflammatory cytokine contents in ascites fluid. e Cytokine heat map. Heatmap generated based on abundance of the indicated cytokines in ascites fluids. Ascites fluid was taken at day 10. a–c Data were analyzed using ordinary one-way Anova followed by Tukey’s multiple comparisons test.
Since PELs are frequently involved in effusions in multiple body cavities in human patients and the amounts of inflammatory cytokines in the effusion are strong prognostic factors, we also extracted ascites fluid and profiled it to see if the PEL cell-derived human cytokine profile was also altered by continued VGN50 treatment.
PEL-derived cytokine profiles in ascites were measured with Olink analysis service with the Olink INFLAMMATION panel using proximity extension technology, a high-throughput multiplex proteomic immunoassay. In short, the panel includes 92 immune-related proteins, primarily cytokines and chemokines. The assay utilizes epitope-specific binding and hybridization of a set of paired oligonucleotide antibody probes, which is subsequently amplified using quantitative PCR, resulting in log base 2-normalized protein expression (NPX) values. The data was processed and analyzed with Olink Insight Stat Analysis software.

CC(C)C[C@H](NC(=O)CCNC(=O)[C@H](CCCNC(=N)N)NC(=O)[C@H](CCCNC(=N)N)NC(=O)[C@H](CCCNC(=N)N)NC(=O)[C@H](CCCN)NC(=O)[C@H](CCCNC(=N)N)NC(=O)[C@H](CCCNC(=N)N)NC(=O)[C@H](CCCCN)NC(=O)[C@H](CCCCN)NC(=O)[C@H](N)CCCNC(=N)N)C(=O)N[C@@H](CO)C(=O)N[C@@H](CO)C(=O)N[C@@H](C)C(=O)N[C@@H](C)C(=O)N[C@@H](C)C(=O)NCC(=O)N[C@@H](CC(C)C)C(=O)N[C@@H](Cc1ccc(O)cc1)C(=O)N[C@@H](CCC(N)=O)C(=O)N[C@@H](CC(C)C)C(=O)N[C@@H](CC(=O)O)C(=O)N[C@H](C(=O)O)[C@@H](C)O [Mt-P] (H-[dR]KKRR[Orn]RRR[βAla]LSSAAAGLYQLDT-OH; N-terminus and C-terminus assumed)
AnnexinV+% (BCBL-1; replicate 1): 3.66%
AnnexinV+% (BCBL-1; replicate 2): 5.9%
AnnexinV+% (BCBL-1; replicate 3): 4.52%
AnnexinV+% (BC-1; replicate 1): 4.73%
AnnexinV+% (BC-1; replicate 2): 4.24%
AnnexinV+% (BC-1; replicate 3): 4.01%
4E-BP1 ([1]; sheet Fig.6d-e, animal 1): 11.1631
ARTN ([1]; sheet Fig.6d-e, animal 1): 5.386
Beta-NGF ([1]; sheet Fig.6d-e, animal 1): -0.391
CST5 ([1]; sheet Fig.6d-e, animal 1): 1.859
CXCL10 ([1]; sheet Fig.6d-e, animal 1): 13.3461
FGF-19 ([1]; sheet Fig.6d-e, animal 1): 2.165
HGF ([1]; sheet Fig.6d-e, animal 1): 6.396
IL8 ([1]; sheet Fig.6d-e, animal 1): 0.86
IL-12B ([1]; sheet Fig.6d-e, animal 1): 2.007
IL-17A ([1]; sheet Fig.6d-e, animal 1): 3.739
IL-18R1 ([1]; sheet Fig.6d-e, animal 1): 4.131
LAP TGF-beta-1 ([1]; sheet Fig.6d-e, animal 1): 6.199
TRAIL ([1]; sheet Fig.6d-e, animal 1): 1.379
TWEAK ([1]; sheet Fig.6d-e, animal 1): 8.018
VEGFA ([1]; sheet Fig.6d-e, animal 1): 14.7314
4E-BP1 ([1]; sheet Fig.6d-e, animal 2): 11.0835
ARTN ([1]; sheet Fig.6d-e, animal 2): 5.243
Beta-NGF ([1]; sheet Fig.6d-e, animal 2): -0.4548
CST5 ([1]; sheet Fig.6d-e, animal 2): 2.027
CXCL10 ([1]; sheet Fig.6d-e, animal 2): 13.3201
FGF-19 ([1]; sheet Fig.6d-e, animal 2): 2.0905
HGF ([1]; sheet Fig.6d-e, animal 2): 6.305
IL8 ([1]; sheet Fig.6d-e, animal 2): 0.7089
IL-12B ([1]; sheet Fig.6d-e, animal 2): 2.204
IL-17A ([1]; sheet Fig.6d-e, animal 2): 3.881
IL-18R1 ([1]; sheet Fig.6d-e, animal 2): 4.133
LAP TGF-beta-1 ([1]; sheet Fig.6d-e, animal 2): 6.253
TRAIL ([1]; sheet Fig.6d-e, animal 2): 1.569
TWEAK ([1]; sheet Fig.6d-e, animal 2): 8.091
VEGFA ([1]; sheet Fig.6d-e, animal 2): 14.6793
4E-BP1 ([1]; sheet Fig.6d-e, animal 3): 10.8123
ARTN ([1]; sheet Fig.6d-e, animal 3): 5.723
Beta-NGF ([1]; sheet Fig.6d-e, animal 3): -0.3222
CST5 ([1]; sheet Fig.6d-e, animal 3): 2.133
CXCL10 ([1]; sheet Fig.6d-e, animal 3): 13.0806
FGF-19 ([1]; sheet Fig.6d-e, animal 3): 2.37
HGF ([1]; sheet Fig.6d-e, animal 3): 6.6
IL8 ([1]; sheet Fig.6d-e, animal 3): 0.7009
IL-12B ([1]; sheet Fig.6d-e, animal 3): 2.082
IL-17A ([1]; sheet Fig.6d-e, animal 3): 4.127
IL-18R1 ([1]; sheet Fig.6d-e, animal 3): 4.157
LAP TGF-beta-1 ([1]; sheet Fig.6d-e, animal 3): 6.359
TRAIL ([1]; sheet Fig.6d-e, animal 3): 1.603
TWEAK ([1]; sheet Fig.6d-e, animal 3): 8.37
VEGFA ([1]; sheet Fig.6d-e, animal 3): 14.8087
4EBP-1 ([1]; sheet SFig5, animal 1): 11.7332
ARTN ([1]; sheet SFig5, animal 1): 5.386
CST5 ([1]; sheet SFig5, animal 1): 1.859
FGF-19 ([1]; sheet SFig5, animal 1): 2.165
HGF ([1]; sheet SFig5, animal 1): 4.42
IL-8 ([1]; sheet SFig5, animal 1): 0.86
IL-12B ([1]; sheet SFig5, animal 1): 2.007
IL-17A ([1]; sheet SFig5, animal 1): 1.782
IL-18R1 ([1]; sheet SFig5, animal 1): 4.131
LAPTGFb-1 ([1]; sheet SFig5, animal 1): 4.365
TRAIL ([1]; sheet SFig5, animal 1): 1.379
TWAEK ([1]; sheet SFig5, animal 1): 5.713
VEGFA ([1]; sheet SFig5, animal 1): 13.2543
bNGF ([1]; sheet SFig5, animal 1): -0.391
4EBP-1 ([1]; sheet SFig5, animal 2): 11.7927
ARTN ([1]; sheet SFig5, animal 2): 5.243
CST5 ([1]; sheet SFig5, animal 2): 2.027
CXCL10 ([1]; sheet SFig5, animal 2): 11.2953
FGF-19 ([1]; sheet SFig5, animal 2): 2.0905
HGF ([1]; sheet SFig5, animal 2): 4.269
IL-8 ([1]; sheet SFig5, animal 2): 0.7089
IL-12B ([1]; sheet SFig5, animal 2): 2.204
IL-17A ([1]; sheet SFig5, animal 2): 1.942
IL-18R1 ([1]; sheet SFig5, animal 2): 4.133
LAPTGFb-1 ([1]; sheet SFig5, animal 2): 4.29
TRAIL ([1]; sheet SFig5, animal 2): 1.569
TWAEK ([1]; sheet SFig5, animal 2): 5.701
VEGFA ([1]; sheet SFig5, animal 2): 13.2545
bNGF ([1]; sheet SFig5, animal 2): -0.4548
4EBP-1 ([1]; sheet SFig5, animal 3): 11.484
ARTN ([1]; sheet SFig5, animal 3): 5.723
CST5 ([1]; sheet SFig5, animal 3): 2.133
CXCL10 ([1]; sheet SFig5, animal 3): 11.1526
FGF-19 ([1]; sheet SFig5, animal 3): 2.37
HGF ([1]; sheet SFig5, animal 3): 4.697
IL-8 ([1]; sheet SFig5, animal 3): 0.7009
IL-12B ([1]; sheet SFig5, animal 3): 2.082
IL-17A ([1]; sheet SFig5, animal 3): 2.371
IL-18R1 ([1]; sheet SFig5, animal 3): 4.157
LAPTGFb-1 ([1]; sheet SFig5, animal 3): 4.688
TRAIL ([1]; sheet SFig5, animal 3): 1.603
TWAEK ([1]; sheet SFig5, animal 3): 6.152
VEGFA ([1]; sheet SFig5, animal 3): 13.6674
bNGF ([1]; sheet SFig5, animal 3): -0.3222
